This note sets out measurements from PubChem BioAssay (NCI).

Among the test systems are UACC-62 melanoma; BT-549 breast; MDA-MB-435; M14 melanoma; MDA-MB-231 breast; U251 CNS; 786-0 renal; A498 renal; A549 NSCLC; K-562 leukemia.
What all share (test): growth of human tumour cells (NCI), 48 h

Values joined by “and” are separate entries in the source; they are usually repeats but may differ in a detail not shown here. Equal values may be shown once.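 All cell lines were grown in 96-well plates and treated with compound for 48 hours. GI50: concentration for 50% inhibition of growth. Definition used: TGI = concentration required for complete inhibition of growth.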

Take `N#Cc1ccc2c(c1)C(=O)c1c-2n(CCCCl)c(=O)c2cc([N+](=O)[O-])ccc12`: the GI50 with UACC-62 melanoma is 1.13 µM; with BT-549 breast, 2.28 µM; in the experiment with MDA-MB-435, over 100 µM; with M14 melanoma it was 4.64 µM; in the experiment on MDA-MB-231 breast, 77.5 µM; in the experiment on U251 CNS it was 1.63 µM. Further, the GI50 is 2.46 µM with 786-0 renal and 22.8 µM with A498 renal. Moreover, the TGI was 9.96 µM with UACC-62 melanoma; 23.5 µM in the experiment with BT-549 breast; over 100 µM in the experiment on MDA-MB-435; over 100 µM in the experiment on M14 melanoma; over 100 µM in the experiment with MDA-MB-231 breast; 16.4 µM with U251 CNS. Besides, the TGI in the experiment with 786-0 renal is 7.88 µM; in the experiment with A498 renal, 55.3 µM.
In the case of `C=C1C(=O)O[C@H]2[C@H]1CC/C(COC(=O)c1cc3ccccc3o1)=C\CC[C@@]1(C)O[C@@H]21`, the GI50 was 1.68 µM in the experiment on UACC-62 melanoma; 2.91 µM in the experiment with A549 NSCLC; 1.48 µM with BT-549 breast; 1.43 µM with MDA-MB-435; 1.43 µM with M14 melanoma; 1.64 µM with MDA-MB-231 breast. Moreover, the GI50 in the experiment with U251 CNS was 1.63 µM; with 786-0 renal it was 1.81 µM; with A498 renal, 12.9 µM; with K-562 leukemia, 1.15 µM. Moreover, the TGI in the experiment with UACC-62 melanoma was 3.23 µM; with A549 NSCLC, 12 µM; in the experiment on BT-549 breast it was 3.29 µM; with MDA-MB-435, 2.9 µM; with M14 melanoma it was 3.13 µM; in the experiment with MDA-MB-231 breast, 3.55 µM. Further, the TGI in the experiment on U251 CNS was determined as 3.16 µM; in the experiment with 786-0 renal, 3.45 µM; in the experiment on A498 renal it was 26 µM; in the experiment with K-562 leukemia it was 7.43 µM.
As for `COc1cc(Nc2nc3ccccc3nc2NS(=O)(=O)c2ccc(NC(=O)c3ccc(C)c(OC)c3)cc2)cc(OC)c1`, the GI50 is 4.38 µM and 13.3 µM and 1.79 µM with A549 NSCLC; 3.71 µM and 12 µM and 2.27 µM in the experiment on U251 CNS; 5.34 µM and 18.7 µM and > 5.29 µM with K-562 leukemia. For the same compound, the TGI is > 100 µM and 80.4 µM and > 9.12 µM in the experiment with A549 NSCLC; 20.9 µM and 49.2 µM and > 6.49 µM in the experiment with BT-549 breast; > 100 µM and 86.2 µM and > 5.19 µM in the experiment on MDA-MB-435; > 100 µM and 94 µM and > 4.68 µM in the experiment with M14 melanoma; 46.2 µM and > 100 µM and > 7 µM in the experiment with MDA-MB-231 breast; 34.7 µM and 33.5 µM and > 10 µM with U251 CNS. For the same compound, the TGI in the experiment on 786-0 renal was 74.1 µM and > 7.32 µM; in the experiment on K-562 leukemia, > 100 µM and 46.4 µM and > 10 µM.
As for `O=C1CC(=O)N(C(=O)c2nn(-c3ccc(Cl)cc3)cc2O)N1`, the GI50 in the experiment with UACC-62 melanoma is 0.381 µM; with A549 NSCLC it was 0.36 µM; in the experiment with BT-549 breast it was 0.296 µM; in the experiment on MDA-MB-435, 0.355 µM; in the experiment with M14 melanoma it was 0.651 µM; in the experiment with MDA-MB-231 breast it was 1.84 µM. Moreover, the GI50 with U251 CNS is 0.147 µM; in the experiment on 786-0 renal, 3.76 µM; in the experiment with K-562 leukemia, 0.292 µM. Besides, the TGI in the experiment on UACC-62 melanoma was 9.41 µM; in the experiment on A549 NSCLC, over 100 µM; in the experiment on BT-549 breast, over 64.5 µM; with MDA-MB-435, over 100 µM; in the experiment on M14 melanoma it was 27.8 µM; in the experiment with MDA-MB-231 breast, over 100 µM. Further, the figures for the TGI with U251 CNS, in the experiment with 786-0 renal and with K-562 leukemia were over 100 µM, over 64.5 µM and 8.15 µM, respectively.
Take `Cc1cc(=O)oc2c(C)c(O)ccc12`: the TGI in the experiment on UACC-62 melanoma, in the experiment on A549 NSCLC, with BT-549 breast, in the experiment on MDA-MB-435, with M14 melanoma and in the experiment on MDA-MB-231 breast was over 100 µM each time. For the same compound, the TGI in the experiment with U251 CNS, with 786-0 renal, in the experiment on A498 renal and in the experiment with K-562 leukemia was over 100 µM each time.
Consider `CS(=O)(=O)CCNCc1ccc(-c2ccc3ncnc(Nc4ccc(OCc5ccccc5)c(Br)c4)c3c2)o1`, for which the GI50 with UACC-62 melanoma is 5.03 µM; in the experiment on A549 NSCLC it was 8.81 µM; in the experiment on BT-549 breast, 8.89 µM; in the experiment on MDA-MB-435, 6.09 µM; in the experiment on M14 melanoma, 4.98 µM; in the experiment on MDA-MB-231 breast it was 4.85 µM. Besides, the GI50 in the experiment with U251 CNS was 7.12 µM; with 786-0 renal it was 4.69 µM; in the experiment with A498 renal, 4.35 µM; in the experiment with K-562 leukemia, 7.72 µM. In addition, the TGI in the experiment on UACC-62 melanoma is 9.75 µM; in the experiment on A549 NSCLC it was over 25 µM; with BT-549 breast, over 25 µM; in the experiment on MDA-MB-435 it was 15.8 µM; with M14 melanoma, 10.3 µM; in the experiment with MDA-MB-231 breast it was 9.87 µM. For the same compound, the TGI was over 23 µM with U251 CNS, 10.2 µM with 786-0 renal, 16.3 µM in the experiment with A498 renal and over 20.6 µM in the experiment on K-562 leukemia.
For the compound `O=c1ccs[nH]1`, the TGI stood at 39.8 µM in the experiment on UACC-62 melanoma; 41.4 µM in the experiment on A549 NSCLC; 40.3 µM in the experiment with BT-549 breast; 31 µM in the experiment with MDA-MB-435; 26.2 µM in the experiment on M14 melanoma; 28.6 µM in the experiment with MDA-MB-231 breast. Moreover, the TGI with U251 CNS turned out to be 21.4 µM; in the experiment on 786-0 renal, 21.4 µM; in the experiment on A498 renal it was 99.6 µM; in the experiment with K-562 leukemia, 64.6 µM.
Regarding `COc1cc2ncn(-c3cc(O[C@@H](C)c4ccccc4Cl)c(C(N)=O)s3)c2cc1OC`, the GI50 is 0.638 µM with UACC-62 melanoma; 1.45 µM in the experiment with A549 NSCLC; 2.94 µM in the experiment with BT-549 breast; 0.146 µM in the experiment with MDA-MB-435; 1.76 µM with M14 melanoma; 1.19 µM with MDA-MB-231 breast. For the same compound, the GI50 was 1.84 µM with U251 CNS, 4.43 µM in the experiment with 786-0 renal, 1.08 µM in the experiment with A498 renal and 0.983 µM with K-562 leukemia. Besides, the TGI in the experiment with UACC-62 melanoma was over 25 µM; in the experiment with A549 NSCLC, over 25 µM; in the experiment with BT-549 breast, over 24.1 µM; in the experiment with MDA-MB-435 it was over 25 µM; in the experiment on M14 melanoma, over 25 µM; in the experiment on MDA-MB-231 breast, over 25 µM. Moreover, the TGI in the experiment on U251 CNS was over 25 µM; with 786-0 renal, over 25 µM; with A498 renal, 13.8 µM; with K-562 leukemia, over 25 µM.
